The values that follow are results of earlier work, collected in patent publication US20210130806A1, “ENGINEERED BACTERIA EXPRESSING RACEMASE FOR TREATING DISEASES ASSOCIATED WITH HYPERAMMONEMIA” (Synlogic Operating Company, Inc., priority 2017, published 2021).

One data set relates to hepatic encephalopathy. The note with it: compared with placebo, over a 6-month period.
The subject of a further data set is E. coli. Conditions: in vitro and in clinical studies.

Turning to `CO[C@H]1/C=C/O[C@@]2(C)Oc3c(C)c(O)c4c(O)c(c5c(nc6cc(C)ccn65)c4c3C2=O)NC(=O)/C(C)=C\C=C\[C@H](C)[C@H](O)[C@@H](C)[C@@H](O)[C@@H](C)[C@H](OC(C)=O)[C@@H]1C` [Rifaximin], in the data set with hepatic encephalopathy, the “risk of an episode of hepatic encephalopathy” value was “significantly reduce”. Moreover, the “activity against E. coli” value with E. coli is reported as “active”.
